In patent publication US12304905B2, “Pharmaceutical salts of benzothiazol compounds, polymorphs and methods for preparation thereof” (priority 2019, dated 2025):
≈ marks a conversion by molar mass, not a printed value. Read-outs that look alike come from different tables or passages of the source.

Experiments:
Assay type in all cases: physicochemical
[1] = Solubility test of free base in solvents
Method: About 4 mg of (1S,2S)-2-fluoro-N-(6-(4-methylpyridin-3-yl)benzo[d]thiazol-2-yl)cyclopropane-1-carboxamide was weighed into a 2.0 mL glass vial and then selected solvents was added in the vial stepwise until all the solid was dissolved. The experiment was conducted by manual dilution combined with visual observation at 25° C. and 50° C. The total volume of solvent added was recorded.

[2] = Solubility test of free base in bio-relevant media and buffers; conditions: for solubility at 24 h: thermodynamic from solid
Method: About 5 mg starting free base were weighed in 2 mL vials. Then 1.0 mL biorelevant media (SGF, FaSSIF and FeSSIF) and buffers were added into the vials. All the vials were placed on the thermo-mixer and kept at 37° C. (700 r/m in). After shaking at 37° C. for 24 hrs, mother liquids obtained by filtration were analyzed by HPLC directly or after being diluted by ACN/water for 20-40 times.

[3] = Dynamic Vapor Sorption (DVS) of free base
Method: Samples (˜10 mg) were transferred into a DVS instrument and recorded the weight change with respect to the atmospheric humidity at 25° C. using the following parameters: • Equilibrium: dm/dt: 0.01%/min. (for min: 10 min and max: 180 min). • Drying: 0% RH for 120 min • RH (%) measurement step: 10% • RH (%) measurement step scope: 0-90-0% (6) Proton Nuclear Magnetic Resonance (1H NMR) • 400 MHz Bruker with DMSO-d6 or MeOH-d4 solvents • Temperature: 27° C.
(1S,2S)-2-fluoro-N-(6-(4-methylpyridin-3-yl)benzo[d]thiazol-2-yl)cyclopropane-1-carboxamide free base appears as light yellow powder. Subsequently, the physical and thermal properties of free base were characterized. […] This free base form was named as Pattern A.

solubility ([1]; aqueous with cosolvent or surfactant or cyclodextrin, thermodynamic from solid, Acetone/H2O (1/1, v/v), 25° C., read-out: Solubility): < 5000 µg/mL | solubility ([1]; aqueous with cosolvent or surfactant or cyclodextrin, thermodynamic from solid, Acetone/H2O (1/1, v/v), 50° C., read-out: Solubility): < 5000 µg/mL | solubility ([1]; aqueous with cosolvent or surfactant or cyclodextrin, thermodynamic from solid, EtOH/H2O (1/1, v/v), 25° C., read-out: Solubility): < 5000 µg/mL | solubility ([1]; aqueous with cosolvent or surfactant or cyclodextrin, thermodynamic from solid, EtOH/H2O (1/1, v/v), 50° C., read-out: Solubility): < 5000 µg/mL | solubility ([1]; in DMF and DMSO): relatively high solubility | solubility ([1]; in mostly common use solvents): relatively low solubility | solubility ([1]; organic solvent or mixture, thermodynamic from solid, 1,4-dioxane, 25° C., read-out: Solubility): < 5000 µg/mL | solubility ([1]; organic solvent or mixture, thermodynamic from solid, 1,4-dioxane, 50° C., read-out: Solubility): 7000 to 10000 µg/mL (≈ 21.4 to 30.5 mM) | solubility ([1]; organic solvent or mixture, thermodynamic from solid, 2-Propanol (IPA), 25° C., read-out: Solubility): < 5000 µg/mL | solubility ([1]; organic solvent or mixture, thermodynamic from solid, 2-Propanol (IPA), 50° C., read-out: Solubility): < 5000 µg/mL | solubility ([1]; organic solvent or mixture, thermodynamic from solid, Acetone, 25° C., read-out: Solubility): < 5000 µg/mL | solubility ([1]; organic solvent or mixture, thermodynamic from solid, Acetone, 50° C., read-out: Solubility): < 5000 µg/mL | solubility ([1]; organic solvent or mixture, thermodynamic from solid, Acetonitrile (ACN), 25° C., read-out: Solubility): < 5000 µg/mL | solubility ([1]; organic solvent or mixture, thermodynamic from solid, Acetonitrile (ACN), 50° C., read-out: Solubility): < 5000 µg/mL | solubility ([1]; organic solvent or mixture, thermodynamic from solid, Dichloromethane (DCM), 25° C., read-out: Solubility): < 5000 µg/mL | solubility ([1]; organic solvent or mixture, thermodynamic from solid, Dimethylsulfoxide (DMSO), 25° C., read-out: Solubility): > 100000 µg/mL | solubility ([1]; organic solvent or mixture, thermodynamic from solid, Ethyl acetate (EtOAc), 25° C., read-out: Solubility): < 5000 µg/mL | solubility ([1]; organic solvent or mixture, thermodynamic from solid, Ethyl acetate (EtOAc), 50° C., read-out: Solubility): < 5000 µg/mL | solubility ([1]; organic solvent or mixture, thermodynamic from solid, Ethyl alcohol (EtOH), 25° C., read-out: Solubility): < 5000 µg/mL | solubility ([1]; organic solvent or mixture, thermodynamic from solid, Ethyl alcohol (EtOH), 50° C., read-out: Solubility): < 5000 µg/mL | solubility ([1]; organic solvent or mixture, thermodynamic from solid, Heptane, 25° C., read-out: Solubility): < 5000 µg/mL | solubility ([1]; organic solvent or mixture, thermodynamic from solid, Heptane, 50° C., read-out: Solubility): < 5000 µg/mL | solubility ([1]; organic solvent or mixture, thermodynamic from solid, Isopropyl acetate (IPAc), 25° C., read-out: Solubility): < 5000 µg/mL | solubility ([1]; organic solvent or mixture, thermodynamic from solid, Isopropyl acetate (IPAc), 50° C., read-out: Solubility): < 5000 µg/mL | solubility ([1]; organic solvent or mixture, thermodynamic from solid, Methanol (MeOH), 25° C., read-out: Solubility): < 5000 µg/mL | solubility ([1]; organic solvent or mixture, thermodynamic from solid, Methanol (MeOH), 50° C., read-out: Solubility): 5000 to 7000 µg/mL (≈ 15.3 to 21.4 mM) | solubility ([1]; organic solvent or mixture, thermodynamic from solid, Methyl ethyl ketone (MEK), 25° C., read-out: Solubility): < 5000 µg/mL | solubility ([1]; organic solvent or mixture, thermodynamic from solid, Methyl ethyl ketone (MEK), 50° C., read-out: Solubility): < 5000 µg/mL | solubility ([1]; organic solvent or mixture, thermodynamic from solid, Methyl isobutyl ketone (MIBK), 25° C., read-out: Solubility): < 5000 µg/mL | solubility ([1]; organic solvent or mixture, thermodynamic from solid, Methyl isobutyl ketone (MIBK), 50° C., read-out: Solubility): < 5000 µg/mL | solubility ([1]; organic solvent or mixture, thermodynamic from solid, Methyl tert-butyl ether (MtBE), 25° C., read-out: Solubility): < 5000 µg/mL | solubility ([1]; organic solvent or mixture, thermodynamic from solid, Methyl tert-butyl ether (MtBE), 50° C., read-out: Solubility): < 5000 µg/mL | solubility ([1]; organic solvent or mixture, thermodynamic from solid, N,N-Dimethylformamide (DMF), 25° C., read-out: Solubility): 67000 to 100000 µg/mL (≈ 205 to 305 mM) | solubility ([1]; organic solvent or mixture, thermodynamic from solid, N,N-Dimethylformamide (DMF), 50° C., read-out: Solubility): > 100000 µg/mL | solubility ([1]; organic solvent or mixture, thermodynamic from solid, Tetrahydrofuran (THF), 25° C., read-out: Solubility): 8000 to 10000 µg/mL (≈ 24.4 to 30.5 mM) | solubility ([1]; organic solvent or mixture, thermodynamic from solid, Tetrahydrofuran (THF), 50° C., read-out: Solubility): 9000 to 13000 µg/mL (≈ 27.5 to 39.7 mM) | solubility ([1]; organic solvent or mixture, thermodynamic from solid, Toluene, 25° C., read-out: Solubility): < 5000 µg/mL | solubility ([1]; organic solvent or mixture, thermodynamic from solid, Toluene, 50° C., read-out: Solubility): < 5000 µg/mL | solubility ([1]; thermodynamic from solid, Water, 25° C., read-out: Solubility): < 5000 µg/mL | solubility ([1]; thermodynamic from solid, Water, 50° C., read-out: Solubility): < 5000 µg/mL | Final pH value ([2]; FaSSIF, initial pH 6.52): 6.50 | Final pH value ([2]; FeSSIF, initial pH 5.07): 5.09 | Final pH value ([2]; SGF, initial pH 1.92): 2.28 | solubility at 24 h ([2]; aqueous buffer, pH 2.0 buffer, initial pH 1.98, 37° C., 24 hrs): 2060 µg/mL (≈ 6.29 mM) | solubility at 24 h ([2]; aqueous buffer, pH 4.0 buffer, initial pH 4.01, 37° C., 24 hrs): 31 µg/mL (≈ 0.0947 mM) | solubility at 24 h ([2]; aqueous buffer, pH 6.0 buffer, initial pH 5.90, 37° C., 24 hrs): 2 µg/mL (≈ 0.00611 mM) | Final pH value ([2]; pH 2.0 buffer, initial pH 1.98): 2.25 | Final pH value ([2]; pH 4.0 buffer, initial pH 4.01): 4.05 | Final pH value ([2]; pH 6.0 buffer, initial pH 5.90): 5.88 | Final pH value ([2]; pH 8.0 buffer, initial pH 8.04): 8.08 | solubility at 24 h ([2]; simulated gastric fluid, SGF, initial pH 1.92, 37° C., 24 hrs): 2490 µg/mL (≈ 7.61 mM) | solubility at 24 h ([2]; simulated gastric fluid, in SGF and pH 2.0 buffer, 37° C., called medium solubility): 2000 to 2500 µg/mL (≈ 6.11 to 7.64 mM) | solubility at 24 h ([2]; FeSSIF, initial pH 5.07, 37° C., 24 hrs): 45 µg/mL (≈ 0.137 mM) | Final pH value ([2]; water): 8.84 | Hygroscopicity (DVS) [3]: Hygroscopic | DVS (ΔW %, 80% RH) ([3]; 25° C., 80% RH): 2.30% | Form change (Yes/No, XRPD) ([3]; XRPD, listed after DVS): (No)
Structure (SMILES): Cc1ccncc1-c1ccc2nc(NC(=O)[C@@H]3C[C@@H]3F)sc2c1 [free base, (1S,2S)-2-fluoro-N-(6-(4-methylpyridin-3-yl)benzo[d]thiazol-2-yl)cyclopropane-1-carboxamide]
